Results as given in paper PMC12561670, “Isolation of Dual-Active Drugs with Anticancer and Antibacterial Activities That Target Both Tubulin and FtsZ” (Antibiotics, 2025).
In brackets after ≈: the same amount, converted by molar mass. Counter-ions that a name gives are not always drawn. Like-named read-outs stand apart in the source and are kept apart here.

What was measured:
S. aureus (ATCC 6538) = assay: MIC, broth microdilution; assay type: cell-based; details: Staphylococcus aureus, read-out: MIC S. aureus (ATCC 6538)
B. subtilis (CICC 21164) = assay: MIC, broth microdilution; assay type: cell-based; details: Bacillus subtilis, 18 h, read-out: MIC B. subtilis (CICC 21164)
Experimental: MIC assays were carried out by employing the broth microdilution method in accordance with Clinical and Laboratory Standards Institute (CLSI) guidelines. E. coli BNCC337004, S. aureus BNCC336423, P. aeruginosa BNCC337099, and B. subtilis CICC 21164 were applied for the MIC detection. Mueller–Hinton broth (MHB) was used in bacterial culture, and log-phase bacteria were diluted into a 0.5 McFarland Standard suspension, which was then diluted 1000 times again. Subsequently, 100 μL of the obtained bacterial suspension was placed into each well of 96-well microtiter plates, along with 2-fold serial dilutions of compounds (512, 256, 128, 64, 32, 16, 8, 4, 2, 1, 0.5, 0 μM). The microtiter plates were incubated aerobically for 18 h at 37 °C. The MIC was defined as the lowest drug concentration at which no visible turbidity was observed. All experiments are conducted in three parallel.

E. coli (ATCC 8739) = assay: MIC, broth microdilution; assay type: cell-based; details: Escherichia coli, read-out: MIC E. coli (ATCC 8739)
P. aeruginosa (DSM 939) = assay: MIC, broth microdilution; assay type: cell-based; details: Pseudomonas aeruginosa, read-out: MIC P. aeruginosa (DSM 939)
FtsZ = biological target: T1, FtsZ (Staphylococcus aureus, UniProt P0A031); assay: Sedimentation assay of FtsZ polymerization; assay type: biochemical; details: 50 μM compound, 5 μM FtsZ, 37 °C 30 min
T1 construct: His tag; made in house; host or cells: E. coli BL21(DE3)
T1 sequence (P0A031 1-390): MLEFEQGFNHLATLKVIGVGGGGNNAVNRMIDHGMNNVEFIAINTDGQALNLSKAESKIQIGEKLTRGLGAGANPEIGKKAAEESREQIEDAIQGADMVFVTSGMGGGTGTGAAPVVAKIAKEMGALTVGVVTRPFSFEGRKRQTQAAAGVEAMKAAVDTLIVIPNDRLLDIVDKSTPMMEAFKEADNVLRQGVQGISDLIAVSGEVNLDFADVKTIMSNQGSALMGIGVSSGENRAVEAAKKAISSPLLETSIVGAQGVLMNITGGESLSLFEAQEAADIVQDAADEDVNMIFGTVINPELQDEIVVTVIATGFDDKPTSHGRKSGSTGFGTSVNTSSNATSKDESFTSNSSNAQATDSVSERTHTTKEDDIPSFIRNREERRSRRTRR
Experimental: Sedimentation assay was also conducted for the influence of compounds on FtsZ polymerization. FtsZ (5 μM) was polymerized in a buffer containing 25 mM Pipes buffer (pH 6.8) and 3 mM MgSO4 in the […] of DMSO or compounds (50 μM). After the addition of 4 mM GTP, the sample was instantly placed at 37 °C for 30 min. Then, the polymers were collected by centrifuging for 30 min at 25 °C. The protein concentration in the supernatant was determined using the Bradford quantification method, with bovine serum albumin (BSA) as the standard. The experiment was performed in triplicate, and the average absorbance is shown.

bovine brain tubulin = assay: Inhibition of tubulin polymerization; assay type: biochemical; details: 10 μM bovine brain tubulin, 20 min; read-out: IC50 ± SD Tubulin (inhibition of tubulin polymerization)
Experimental: Compounds with a certain concentration were pre-incubated with 10 μM bovine brain tubulin in glutamate buffer at 30 °C, and then cooled to 0 °C. The absorbance of 350 nm was immediately measured at 30 °C, as soon as the addition of 0.4 mM GTP. The absorbance would be detected continuously for 20 min. The IC50 was defined as the compound concentration that inhibited tubulin polymerization by 50% during 20 min.

S. aureus FtsZ = biological target: T2, S. aureus FtsZ (Staphylococcus aureus, UniProt P0A031); assay: FtsZ polymerization assay (A340); assay type: biochemical; details: 50 μM compound, 5 µM FtsZ, 4 mM GTP, vs DMSO
T2 construct: His tag; made in house; host or cells: E. coli BL21(DE3)
T2 sequence (P0A031 1-390): T1 sequence (P0A031 1-390)
Experimental: The effect of compounds on S. aureus FtsZ polymerization was monitored by employing a microtiter plate-based spectrophotometric assay method, and the reactions were conducted in flat-bottomed 96-well microtiter plates. The degree of FtsZ polymerization was reflected by the corresponding changes in absorbance at 340 nm (A340). […] The polymerization reaction began immediately once 4 mM GTP was added, and then the polymerization was continuously monitored at 25 °C for 60 min by measuring A340 in BioTek-Synergy4 multifunctional enzyme-linked immunosorbent assay (ELISA) reader.

Cytotoxicity, CCK8 = assay type: cell-based; details: human
Experimental: The absorbance of 450 nm was measured in an ELISA reader (BioTek-Synergy 4, USA). Then, cell viability was calculated, and the corresponding images were drawn with GraphPad Prism 9.

S. aureus BNCC336423 = assay: Time–killing curve; assay type: cell-based; details: S. aureus BNCC336423, concentrations of 4× the MIC or greater
Experimental: S. aureus BNCC336423 was employed for the time–killing curve study. […] Meanwhile, DMSO with an equivalent volume was added to the vehicle control tube. The cultures were then subjected to shaking incubation at 37 °C. Subsequently, cultures were taken out at predetermined time intervals (0, 1, 2, 4, 6, 8, and 24 h), centrifuged at 16,000×g for 3 min, and diluted to an appropriate multiple. These diluted samples were then plated onto Tryptic Soy Agar (TSA) plates for enumeration. Following a 24 h incubation period at 37 °C, colonies on the TSA plates were counted for the CFU/mL, thereby providing insights into the time-dependent bactericidal activity of the tested compounds.

B. subtilis = assay: Phase-contrast microscopy, cell division inhibition; assay type: cell-based; details: 64 μM, 4 h
Experimental: Cell Division Inhibitory Screening Assay Cell division inhibitory activity of compounds was conducted as below. […] Afterwards, 1 mL of the sample was centrifuged at 15,000× g for 3 min at room temperature, and the bacterial pellets were washed with 1 mL of PBS before re-centrifugation. The final bacterial pellets obtained were resuspended in 5 mL PBS. 20 μL of bacterial suspension was transferred to slides for microscopy. Cell morphology was estimated by using the phase-contrast method of Olympus IX71 microscopy (Olympus Corporation, Tokyo, Japan) with 400× magnification.

E. coli = assay: In vivo antibacterial activity, mouse peritoneal infection; design: species or system CD-1 male mice
From the text: SPF grade CD-1 male mice weighing 30 ± 3 g were purchased from Shanghai Slake Experimental Animal Co., Ltd. (Shanghai, China). […] Immediately following this, the mice were intraperitoneally injected with the test compounds. Each experimental group consisted of five mice, with each compound being tested at two distinct concentration gradients (determined based on the minimum inhibitory concentration, MIC). A separate group received physiological saline as a negative control. The subsequent assessment focused on evaluating the therapeutic potential of these drugs against bacterial infections. On the first and third days post-administration, 2 mL of sterile physiological saline was injected into the peritoneal cavity of each mouse. After a gentle two-minute dilution under sterile conditions, the abdominal fluid was extracted for bacterial enumeration using the plate counting method. Furthermore, the clinical manifestations of each mouse group, encompassing mental status, appetite, and other relevant parameters, were meticulously observed over a seven-day period. On the seventh day, the mice were euthanized, and a thorough macroscopic examination was conducted to assess the pathological changes in various vital organs.

[1] = ATCC6538, broth microdilution, 18 h, 37 °C
[2] = ATCC8739, broth microdilution, 18 h, 37 °C
[3] = DSM939, broth microdilution, 18 h, 37 °C
[4] = 293T cells (renal epithelial cells), read-out: cell viability HT293 (293T)
[5] = LO2 cells (normal hepatic cells), read-out: cell viability LO2

MIC (S. aureus (ATCC 6538); [1]) | MIC (B. subtilis (CICC 21164); broth microdilution, 37 °C) | MIC (E. coli (ATCC 8739); [2]) | MIC (P. aeruginosa (DSM 939); [3]) | Compound | effect on FtsZ sedimentation (polymerization amount) (FtsZ) | IC50 (bovine brain tubulin) | effect on FtsZ polymerization (A340) (S. aureus FtsZ) | viability at 12 h, 100 µM (Cytotoxicity, CCK8; [4]) | viability at 12 h, 100 µM (Cytotoxicity, CCK8; [5]) | logs of kill in time–kill (S. aureus BNCC336423) | MIC (S. aureus (ATCC 6538); ATCC6538, 18 h) | MIC (B. subtilis (CICC 21164)) | MIC (E. coli (ATCC 8739); ATCC8739, 18 h) | MIC (P. aeruginosa (DSM 939); DSM939, 18 h) | viability at 12 h, 100 µM (Cytotoxicity, CCK8; read-out: cell viability HT293 (293T)) | viability at 12 h, 100 µM (Cytotoxicity, CCK8; read-out: cell viability LO2) | cell morphology of B. subtilis (elongation) (B. subtilis) | bacterial count of peritoneal fluid (E. coli; mice i.p. E. coli, i.p. compound, days 1 and 3) | clinical presentation of infected mice (E. coli; seven-day observation)
8 µM | 16 µM | 64 µM | 32 µM | CC[C@]1(O)C[C@H]2CN(CCc3c([nH]c4ccccc34)[C@@](C(=O)OC)(c3cc4c(cc3OC)N(C=O)[C@H]3[C@@](O)(C(=O)OC)[C@H](OC(C)=O)[C@]5(CC)C=CCN6CC[C@]43[C@@H]65)C2)C1 [Compound 6, Vincristine sulfate] | negligible effects |  |  |  |  |  |  |  |  |  |  |  |  |  | 
8 µM (≈ 2.72 µg/mL) | 64 µM (≈ 21.7 µg/mL) | 16 µM (≈ 5.43 µg/mL) | 8 µM (≈ 2.72 µg/mL) | CC(C)CNc1ccnc(NCc2csc(-c3ccccc3)n2)n1 [Compound 60, KHS 101] | varying degrees of inhibition on FtsZ polymerization | 5.62 ± 0.12 µM | apparent inhibitory tendencies towards FtsZ polymerization | 89% | 90% |  |  |  |  |  |  |  |  |  | 
 |  |  |  | C[C@]12CC[C@@H]3c4ccc(OC(=O)N(CCCl)CCCl)cc4CC[C@H]3[C@@H]1CC[C@@H]2O [Compound 56, Estramustine] | negligible effects | 38.66 ± 0.28 µM | minimal impact on the dynamics of FtsZ polymerization |  |  |  | 128 µM (≈ 56.4 µg/mL) | 64 µM (≈ 28.2 µg/mL) | 128 µM (≈ 56.4 µg/mL) | 32 µM (≈ 14.1 µg/mL) | 98% | 99% |  |  | 
4 µM | 64 µM | 32 µM | 2 µM | CN(C)c1ccc2c(c1)Sc1cc(N(C)C)ccc1N2 [Compound 33, Leucomethylene blue mesylate] | varying degrees of inhibition on FtsZ polymerization | 74.46 ± 0.25 µM | minimal impact on the dynamics of FtsZ polymerization | 80% | 65% | 3 logs |  |  |  |  |  |  |  |  | 

Compound | MIC (S. aureus (ATCC 6538); [1]) | MIC (B. subtilis (CICC 21164); broth microdilution, 37 °C) | MIC (E. coli (ATCC 8739); [2]) | MIC (P. aeruginosa (DSM 939); [3]) | effect on FtsZ sedimentation (polymerization amount) (FtsZ) | IC50 (bovine brain tubulin) | effect on FtsZ polymerization (A340) (S. aureus FtsZ) | viability at 12 h, 100 µM (Cytotoxicity, CCK8; [4]) | viability at 12 h, 100 µM (Cytotoxicity, CCK8; [5]) | logs of kill in time–kill (S. aureus BNCC336423) | MIC (S. aureus (ATCC 6538); ATCC6538, 18 h) | MIC (B. subtilis (CICC 21164)) | MIC (E. coli (ATCC 8739); ATCC8739, 18 h) | MIC (P. aeruginosa (DSM 939); DSM939, 18 h) | viability at 12 h, 100 µM (Cytotoxicity, CCK8; read-out: cell viability HT293 (293T)) | viability at 12 h, 100 µM (Cytotoxicity, CCK8; read-out: cell viability LO2) | cell morphology of B. subtilis (elongation) (B. subtilis) | bacterial count of peritoneal fluid (E. coli; mice i.p. E. coli, i.p. compound, days 1 and 3) | clinical presentation of infected mice (E. coli; seven-day observation)
CN(C)c1ccc2nc3ccc(=[N+](C)C)cc-3sc2c1 [Compound 71, Methylene Blue] | 2 µM | 32 µM | 64 µM | 64 µM | negligible effects |  |  |  |  | 3 logs |  |  |  |  |  |  |  |  | 
COc1ccc2cc3[n+](cc2c1OC)CCc1cc2c(cc1-3)OCO2 [Compound 82, Berberine] | 4 µM | 64 µM | 64 µM | 8 µM | varying degrees of inhibition on FtsZ polymerization |  | robust inhibitory activity against FtsZ polymerization |  |  |  |  |  |  |  |  |  | varying degrees of elongation | substantially mitigated | exhibited vitality, maintained a healthy appetite
